Measured values reported in PMC8528861, “Structural and functional analysis of target recognition by the lymphocyte adaptor protein LNK” (Nature Communications, 2021).

Columns and labels:
Test in all cases: Thermostability assay
Details in all cases: for delta Tm / Tm, plus phosphotyrosine: 10 mM phosphotyrosine; for delta Tm: relative to apo Tm; for Tm, plus phosphotyrosine: protein 30 μM in PBS; for Tm: protein 100 μM, peptide five-fold molar excess, phenyl phosphate 8 mM
V374M LNK SH2 domain = format: binding, mouse
Method: (§1) Using mouse SH2 domain equivalents of these variants we investigated whether the incorporation of these mutations affected protein stability by measuring their melting point (Tm).
(§2) For peptide and phenyl phosphate experiments, proteins were desalted into 100 mM NaCl, 20 mM Tris (pH 8.0), 2 mM TCEP buffer and diluted to 100 μM. Where peptides were used, a five-fold molar excess of peptide was added to each sample, in phenyl phosphate conditions concentration was 8 mM. For experiments were phosphotyrosine, proteins were diluted to 30 μM in PBS and in phosphate conditions, concentration was 10 mM. Ten mcroliter of each sample was transferred into a capillary and measured from 35 to 95 °C using a Tycho N6T (Nanotemper). Data were analyzed in Prism.

R387C LNK SH2 domain = target: T1, R387C LNK SH2 domain (Mus musculus, UniProt O09039, R387C); format: binding
T1 construct: DNA encoding the mouse LNK SH2 domain (residues 324–446) and an N-terminal NusA; NusA (N, cleaved yes); made in house; host or cells: E. coli
T1 sequence (O09039 324-446 R387C): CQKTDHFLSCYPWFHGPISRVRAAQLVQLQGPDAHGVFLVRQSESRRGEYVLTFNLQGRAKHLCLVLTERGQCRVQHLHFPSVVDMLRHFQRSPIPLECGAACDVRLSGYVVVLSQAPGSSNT
Method: as §1, §2

R387H LNK SH2 domain = target: T2, R387H LNK SH2 domain (Mus musculus, UniProt O09039, R387H); format: binding
T2 construct: DNA encoding the mouse LNK SH2 domain (residues 324–446) and an N-terminal NusA; NusA (N, cleaved yes); made in house; host or cells: E. coli
T2 sequence (O09039 324-446 R387H): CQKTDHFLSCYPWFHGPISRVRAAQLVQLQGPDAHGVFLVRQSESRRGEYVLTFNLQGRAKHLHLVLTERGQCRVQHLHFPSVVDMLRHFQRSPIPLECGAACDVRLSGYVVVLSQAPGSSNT
Method: as §1, §2

WT LNK SH2 domain = target: T3, WT LNK SH2 domain (Mus musculus, UniProt O09039); format: binding
T3 construct: DNA encoding the mouse LNK SH2 domain (residues 324–446) and an N-terminal NusA; NusA (N, cleaved yes); made in house; host or cells: E. coli (tuner (DE3), BL21(DE3) or C43)
T3 sequence (O09039 324-446): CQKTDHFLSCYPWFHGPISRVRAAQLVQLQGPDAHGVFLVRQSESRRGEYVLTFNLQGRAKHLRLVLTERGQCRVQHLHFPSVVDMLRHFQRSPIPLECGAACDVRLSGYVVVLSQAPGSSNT
Method: as §1, §2

For `N[C@@H](Cc1ccc(OP(=O)(O)O)cc1)C(=O)O` [Phosphotyrosine, phosphotyrosine], the “delta Tm” value (V374M LNK SH2 domain; replicate 1) was 3.1 °C, the “delta Tm” value (V374M LNK SH2 domain; replicate 2) was 3.2 °C and the “delta Tm” value (V374M LNK SH2 domain; replicate 3) was 3.3 °C. For the same compound, the “delta Tm” value (V374M LNK SH2 domain; replicate 4) was 3.2 °C, the “delta Tm” value (V374M LNK SH2 domain; replicate 5) was 3.4 °C and the “Tm, plus phosphotyrosine” value (V374M LNK SH2 domain; replicate 1) was 55 °C. The “Tm, plus phosphotyrosine” value (V374M LNK SH2 domain; replicate 2) was 55.1 °C, the “Tm, plus phosphotyrosine” value (V374M LNK SH2 domain; replicate 3) was 55.2 °C and the “Tm, plus phosphotyrosine” value (V374M LNK SH2 domain; replicate 4) was 55.2 °C. The “Tm, plus phosphotyrosine” value (V374M LNK SH2 domain; replicate 5) was 55.2 °C, the “delta Tm” value (R387C LNK SH2 domain; replicate 1) was 5.7 °C and the “delta Tm” value (R387C LNK SH2 domain; replicate 2) was 6.5 °C. For the same compound, the “delta Tm” value (R387C LNK SH2 domain; replicate 3) was 6.1 °C, the “delta Tm” value (R387C LNK SH2 domain; replicate 4) was 6.2 °C and the “delta Tm” value (R387C LNK SH2 domain; replicate 5) was 6.4 °C. The “Tm, plus phosphotyrosine” value (R387C LNK SH2 domain; replicate 1) was 56.8 °C, the “Tm, plus phosphotyrosine” value (R387C LNK SH2 domain; replicate 2) was 57.5 °C and the “Tm, plus phosphotyrosine” value (R387C LNK SH2 domain; replicate 3) was 57.1 °C. For the same compound, the “Tm, plus phosphotyrosine” value (R387C LNK SH2 domain; replicate 4) was 57.2 °C, the “Tm, plus phosphotyrosine” value (R387C LNK SH2 domain; replicate 5) was 57.6 °C and the “delta Tm” value (R387H LNK SH2 domain; replicate 1) was 3.9 °C. For the same compound, the “delta Tm” value (R387H LNK SH2 domain; replicate 2) was 3.9 °C, the “delta Tm” value (R387H LNK SH2 domain; replicate 3) was 3.6 °C and the “delta Tm” value (R387H LNK SH2 domain; replicate 4) was 3.4 °C. For the same compound, the “delta Tm” value (R387H LNK SH2 domain; replicate 5) was 3.5 °C, the “Tm, plus phosphotyrosine” value (R387H LNK SH2 domain; replicate 1) was 55.2 °C and the “Tm, plus phosphotyrosine” value (R387H LNK SH2 domain; replicate 2) was 55.2 °C. The “Tm, plus phosphotyrosine” value (R387H LNK SH2 domain; replicate 3) was 54.8 °C, the “Tm, plus phosphotyrosine” value (R387H LNK SH2 domain; replicate 4) was 54.9 °C and the “Tm, plus phosphotyrosine” value (R387H LNK SH2 domain; replicate 5) was 55 °C. For the same compound, the “delta Tm” value (WT LNK SH2 domain; replicate 1) was 6.6 °C, the “delta Tm” value (WT LNK SH2 domain; replicate 2) was 8.1 °C and the “delta Tm” value (WT LNK SH2 domain; replicate 3) was 7.6 °C. For the same compound, the “delta Tm” value (WT LNK SH2 domain; replicate 4) was 8.1 °C, the “Tm, plus phosphotyrosine” value (WT LNK SH2 domain; replicate 1) was 61.1 °C and the “Tm, plus phosphotyrosine” value (WT LNK SH2 domain; replicate 2) was 61.7 °C. The “Tm, plus phosphotyrosine” value (WT LNK SH2 domain; replicate 3) was 61.9 °C and the “Tm, plus phosphotyrosine” value (WT LNK SH2 domain; replicate 4) was 62.5 °C.
Compound `O=P(O)(O)Oc1ccccc1` [Phenyl Phos, phenyl phosphate] has a Tm (V374M LNK SH2 domain; replicate 1) of 54.0 °C, a Tm (V374M LNK SH2 domain; replicate 2) of 54.3 °C and a Tm (V374M LNK SH2 domain; replicate 3) of 54.7 °C. It also gave a Tm (R387C LNK SH2 domain; replicate 1) of 56.6 °C, a Tm (R387C LNK SH2 domain; replicate 2) of 54.9 °C and a Tm (R387C LNK SH2 domain; replicate 3) of 54.8 °C. For the same compound, the Tm (R387H LNK SH2 domain; replicate 1) was 55.7 °C, the Tm (R387H LNK SH2 domain; replicate 2) was 56.0 °C and the Tm (R387H LNK SH2 domain; replicate 3) was 56.2 °C. The Tm (WT LNK SH2 domain; replicate 1) was 60.6 °C, the Tm (WT LNK SH2 domain; replicate 2) was 61.6 °C and the Tm (WT LNK SH2 domain; replicate 3) was 60.8 °C.
